Results taken from patent publication US20030022158A1, “Peptides from the TT virus sequence and monospecific antibodies binding to the TT virus” (priority 1999, published 2003).

System: human IgG antibodies in human serum samples
Test: EIA of human antibody reactivities to overlapping synthetic peptides of TTV ORF1 and ORF2 (Tables 2 and 3)
Format: binding
Details: for optical density (OD) at 405 nm: serum diluted 1:100, OD over 0.500 considered positive; for optical density (OD) at 405 nm, EIA reactivity of human serum sample 1: serum sample 1, negative for TTV DNA by PCR; for optical density (OD) at 405 nm, EIA reactivity of human serum sample 1 / optical density (OD) at 405 nm, EIA reactivity of human serum sample 2 / optical density (OD) at 405 nm, EIA reactivity of human serum sample 3 / optical density (OD) at 405 nm, EIA reactivity of human serum sample 4 / optical density (OD) at 405 nm, EIA reactivity of human serum sample 5 / optical density (OD) at 405 nm, EIA reactivity of human serum sample 6 / optical density (OD) at 405 nm, EIA reactivity of human serum sample 7 / optical density (OD) at 405 nm, EIA reactivity of human serum sample 9 / optical density (OD) at 405 nm, EIA reactivity of human serum sample 11 / optical density (OD) at 405 nm, EIA reactivity of human serum sample 18 / optical density (OD) at 405 nm, EIA reactivity of human serum sample 36 / optical density (OD) at 405 nm, EIA reactivity of human serum sample 48 / optical density (OD) at 405 nm, EIA reactivity of human serum sample 98 / optical density (OD) at 405 nm, EIA reactivity of human serum sample 110 / optical density (OD) at 405 nm, EIA reactivity of human serum sample 155 / optical density (OD) at 405 nm, EIA reactivity of human serum sample 157: serum 1:100, peptide coated 10 μg/ml, OD over 0.500 positive; for optical density (OD) at 405 nm, EIA reactivity of human serum sample 2: serum sample 2, negative for TTV DNA by PCR; for optical density (OD) at 405 nm, EIA reactivity of human serum sample 3: serum sample 3, negative for TTV DNA by PCR; for optical density (OD) at 405 nm, EIA reactivity of human serum sample 4: serum sample 4, negative for TTV DNA by PCR; for optical density (OD) at 405 nm, EIA reactivity of human serum sample 5: serum sample 5, negative for TTV DNA by PCR; for optical density (OD) at 405 nm, EIA reactivity of human serum sample 6: serum sample 6, negative for TTV DNA by PCR; for optical density (OD) at 405 nm, EIA reactivity of human serum sample 7: serum sample 7, negative for TTV DNA by PCR; for optical density (OD) at 405 nm, EIA reactivity of human serum sample 9: serum sample 9, positive for TTV DNA by PCR; for optical density (OD) at 405 nm, EIA reactivity of human serum sample 11: serum sample 11, negative for TTV DNA by PCR; for optical density (OD) at 405 nm, EIA reactivity of human serum sample 18: serum sample 18, positive for TTV DNA by PCR; for optical density (OD) at 405 nm, EIA reactivity of human serum sample 36: serum sample 36, positive for TTV DNA by PCR; for optical density (OD) at 405 nm, EIA reactivity of human serum sample 48: serum sample 48, positive for TTV DNA by PCR; for optical density (OD) at 405 nm, EIA reactivity of human serum sample 98: serum sample 98, positive for TTV DNA by PCR; for optical density (OD) at 405 nm, EIA reactivity of human serum sample 110: serum sample 110, positive for TTV DNA by PCR; for optical density (OD) at 405 nm, EIA reactivity of human serum sample 155: serum sample 155, positive for TTV DNA by PCR; for optical density (OD) at 405 nm, EIA reactivity of human serum sample 157: serum sample 157, positive for TTV DNA by PCR; for human reactivity to peptide (reactive peptides within ORF1): tested human sera
Source text: Overlapping peptides (18 amino acids in length containing an 8 amino acid overlap) corresponding to regions of the ORFI and ORF2 of TTV (TABLE 1; Genebank accession no AB008394) were produced by a multiple peptide synthesizer (Syro, Syntex, Germany) using standard Fmoc chemistry (Sallberg et al., Immunology Letters, 30:59 68 (1991), herein expressly incorporated by reference in its entirety).
The EIAs used to identify which peptides interacted with human sera followed protocols known in the art. (See Zhang et al., J Gen Virol, 78:2735-2746 (1997), herein expressly incorporated by reference in its entirety). Briefly, microplates (Nunc, Denmark) were coated for 48 hours with synthetic peptides at a concentration of 10 μg/ml in 0.05M sodium carbonate buffer pH 9.6. After blocking for 2 hours at room temperature with phosphate buffered saline containing 1% bovine serum albumin, 2% goat serum and 0.05% Tween 20 (dilution buffer) the plates were incubated with human sera diluted 1:100 in dilution buffer. Bound human IgG was detected by incubation with anti-human IgG antibodies conjugated to alkaline phosphatase (Sigma Chemicals, St. Louis, Mo.). The plates were developed by the addition of […] (Sigma) and the optical densities were determined at 405 nm.

[1] = human serum sample 1, negative for TTV DNA by PCR
[2] = human serum sample 2, negative for TTV DNA by PCR
[3] = human serum sample 3, negative for TTV DNA by PCR
[4] = human serum sample 4, negative for TTV DNA by PCR
[5] = human serum sample 5, negative for TTV DNA by PCR
[6] = human serum sample 6, negative for TTV DNA by PCR
[7] = human serum sample 7, negative for TTV DNA by PCR
[8] = human serum sample 9, positive for TTV DNA by PCR
[9] = human serum sample 11, negative for TTV DNA by PCR
[10] = human serum sample 18, positive for TTV DNA by PCR
[11] = human serum sample 36, positive for TTV DNA by PCR
[12] = human serum sample 48, positive for TTV DNA by PCR
[13] = human serum sample 98, positive for TTV DNA by PCR
[14] = human serum sample 110, positive for TTV DNA by PCR
[15] = human serum sample 155, positive for TTV DNA by PCR
[16] = human serum sample 157, positive for TTV DNA by PCR

Sequence	optical density (OD) at 405 nm [1] [OD]	optical density (OD) at 405 nm [2] [OD]	optical density (OD) at 405 nm [3] [OD]	optical density (OD) at 405 nm [4] [OD]	optical density (OD) at 405 nm [5] [OD]	optical density (OD) at 405 nm [6] [OD]	optical density (OD) at 405 nm [7] [OD]	optical density (OD) at 405 nm [8] [OD]	optical density (OD) at 405 nm [9] [OD]	optical density (OD) at 405 nm [10] [OD]	optical density (OD) at 405 nm [11] [OD]	optical density (OD) at 405 nm [12] [OD]	optical density (OD) at 405 nm [13] [OD]	optical density (OD) at 405 nm [14] [OD]	optical density (OD) at 405 nm [15] [OD]	optical density (OD) at 405 nm [16] [OD]	optical density (OD) at 405 nm, EIA reactivity of human serum sample 1 [OD]	optical density (OD) at 405 nm, EIA reactivity of human serum sample 2 [OD]	optical density (OD) at 405 nm, EIA reactivity of human serum sample 3 [OD]	human reactivity to peptide (reactive peptides within ORF1) (EIA)	other results
EDGGAGGDADHGGAAGGP (Peptide Immunogen) [ORF2 peptide 19, overlapping synthetic peptide of TTV ORF2]																					number of tested human sera reactive with the peptide (ORF2 peptide, EIA): Two of the tested human sera were reactive
KINTMPPFLDTELTAPS (Peptide Immunogen) [compound 18, overlapping synthetic peptide of TTV ORF1]	0.09	0.09	0.15	0.29	0.07	0.13	0.62	0.08	0.28	0.07	0.13	0.12	0.04	0.08	0.19	0.18	0.00	0.00	0.00	Reactive	optical density (OD) at 405 nm, EIA reactivity of human serum sample 4: 0.00 OD; optical density (OD) at 405 nm, EIA reactivity of human serum sample 5: 0.00 OD; optical density (OD) at 405 nm, EIA reactivity of human serum sample 6: 0.00 OD; optical density (OD) at 405 nm, EIA reactivity of human serum sample 7: 0.00 OD; optical density (OD) at 405 nm, EIA reactivity of human serum sample 9: 0.00 OD; optical density (OD) at 405 nm, EIA reactivity of human serum sample 11: 0.00 OD; optical density (OD) at 405 nm, EIA reactivity of human serum sample 18: 0.00 OD; optical density (OD) at 405 nm, EIA reactivity of human serum sample 36: 0.00 OD; optical density (OD) at 405 nm, EIA reactivity of human serum sample 48: 0.00 OD; optical density (OD) at 405 nm, EIA reactivity of human serum sample 98: 0.00 OD; optical density (OD) at 405 nm, EIA reactivity of human serum sample 110: 0.00 OD; optical density (OD) at 405 nm, EIA reactivity of human serum sample 155: 0.00 OD; optical density (OD) at 405 nm, EIA reactivity of human serum sample 157: 0.00 OD
QKESLLFPPVKLLRRVP (Peptide Immunogen) [compound 69, overlapping synthetic peptide of TTV ORF1]	0.10	0.15	0.16	0.14	0.12	0.51	0.11	0.09	0.13	0.08	0.08	0.09	0.10	0.11	0.15	0.21				Reactive	
VLICGENTVSRNYATHS (Peptide Immunogen) [compound 10, overlapping synthetic peptide of TTV ORF1]	0.09	0.10	0.11	0.11	0.11	0.13	1.09	0.09	0.12	0.07	0.07	0.11	0.06	0.09	0.12	0.12	0.09	0.11	0.10	Reactive	optical density (OD) at 405 nm, EIA reactivity of human serum sample 4: 0.09 OD; optical density (OD) at 405 nm, EIA reactivity of human serum sample 5: 0.08 OD; optical density (OD) at 405 nm, EIA reactivity of human serum sample 6: 0.11 OD; optical density (OD) at 405 nm, EIA reactivity of human serum sample 7: 0.08 OD; optical density (OD) at 405 nm, EIA reactivity of human serum sample 9: 0.09 OD; optical density (OD) at 405 nm, EIA reactivity of human serum sample 11: 0.10 OD; optical density (OD) at 405 nm, EIA reactivity of human serum sample 18: 0.09 OD; optical density (OD) at 405 nm, EIA reactivity of human serum sample 36: 0.07 OD; optical density (OD) at 405 nm, EIA reactivity of human serum sample 48: 0.08 OD; optical density (OD) at 405 nm, EIA reactivity of human serum sample 98: 0.08 OD; optical density (OD) at 405 nm, EIA reactivity of human serum sample 110: 0.08 OD; optical density (OD) at 405 nm, EIA reactivity of human serum sample 155: 0.11 OD; optical density (OD) at 405 nm, EIA reactivity of human serum sample 157: 0.13 OD
